The values that follow come from ChEMBL document CHEMBL4190185 (Medchemcomm, 2016).

Structures are written as SMILES. The source made the active and inactive calls. No cut-off for these calls is given here.

The test system of series [1] is Calvarial osteoblast. Put plainly: Cytotoxicity against mouse calvarial osteoblasts at 0.000001 to 1 uM after 48 hrs by MTT assay. It is filed as cell-based. (In general: Tetrazolium dyes change colour on reduction, which living cells bring about.)
Series [2] deals with Estrogen receptor beta (Mus musculus) (UniProt O08537). Put plainly: Activation of ERbeta in mouse calvarial osteoblasts assessed as induction of osteoblast differentiation by measuring increase in ALP activity at 1 pM using PNPP as substrate after 48 hrs by colorimetric method.
The target is the same in series [3]. Put plainly: Activation of ERbeta in mouse calvarial osteoblasts assessed as induction of mineralization by measuring increase in calcium nodules at 1 pM supplemented with fresh medium containing compounds every 48 hrs for 18 days measured on day 18 by alizarin red-S staining based colorimetric method relative to control.
The subject of series [4] is Calvarial osteoblast. Description: Induction of osteoblast differentiation in mouse calvarial osteoblasts assessed as increase in BMP2 mRNA expression at 1 to 100 pM after 48 hrs by SYBR green1 staining based RT-qPCR analysis. The series is classed as functional, cell-based.
The subject of series [5] is Calvarial osteoblast. Put plainly: Induction of osteoblast differentiation in mouse calvarial osteoblasts assessed as increase in RUNX2 mRNA expression at 1 to 100 pM after 48 hrs by SYBR green1 staining based RT-qPCR analysis. The series is classed as functional, cell-based.
Series [6] concerns the target T1, Estrogen receptor (Mus musculus) (UniProt P19785).
T1 sequence (whole entry): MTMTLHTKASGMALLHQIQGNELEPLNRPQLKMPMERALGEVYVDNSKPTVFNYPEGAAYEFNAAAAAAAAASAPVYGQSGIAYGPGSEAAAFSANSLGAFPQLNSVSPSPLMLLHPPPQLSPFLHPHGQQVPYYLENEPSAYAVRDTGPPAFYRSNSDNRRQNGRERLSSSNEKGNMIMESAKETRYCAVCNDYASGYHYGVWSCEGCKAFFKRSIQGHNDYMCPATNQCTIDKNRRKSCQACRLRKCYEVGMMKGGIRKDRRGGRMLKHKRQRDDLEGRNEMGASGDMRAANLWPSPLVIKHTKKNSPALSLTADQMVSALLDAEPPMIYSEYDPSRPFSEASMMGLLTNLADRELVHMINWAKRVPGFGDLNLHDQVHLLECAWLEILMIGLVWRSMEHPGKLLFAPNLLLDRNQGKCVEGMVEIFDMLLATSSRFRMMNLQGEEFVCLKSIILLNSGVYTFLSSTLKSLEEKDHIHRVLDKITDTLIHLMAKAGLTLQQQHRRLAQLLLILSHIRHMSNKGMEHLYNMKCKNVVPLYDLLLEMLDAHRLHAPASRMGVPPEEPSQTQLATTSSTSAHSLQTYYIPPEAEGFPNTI
Description: Up regulation of ERalpha expression in mouse calvarial osteoblasts at 1 to 100 pM after 48 hrs by Western blot analysis. Background: In western blotting, separated proteins are transferred to a membrane and probed.

Series [7] addresses Estrogen receptor beta (Mus musculus) (UniProt O08537). Put plainly: Up regulation of ERbeta expression in mouse calvarial osteoblasts at 1 to 100 pM after 48 hrs by Western blot analysis.
In series [8] the test system is Calvarial osteoblast. Description: Induction of osteoblast differentiation in mouse calvarial osteoblasts assessed as increase in osterix mRNA expression at 1 to 100 pM after 48 hrs by SYBR green1 staining based RT-qPCR analysis. It is filed as functional, cell-based. For orientation: In qPCR the cycle at which signal appears reflects the starting amount.

Estrogen receptor beta (Mus musculus), sequence (O08537 whole entry): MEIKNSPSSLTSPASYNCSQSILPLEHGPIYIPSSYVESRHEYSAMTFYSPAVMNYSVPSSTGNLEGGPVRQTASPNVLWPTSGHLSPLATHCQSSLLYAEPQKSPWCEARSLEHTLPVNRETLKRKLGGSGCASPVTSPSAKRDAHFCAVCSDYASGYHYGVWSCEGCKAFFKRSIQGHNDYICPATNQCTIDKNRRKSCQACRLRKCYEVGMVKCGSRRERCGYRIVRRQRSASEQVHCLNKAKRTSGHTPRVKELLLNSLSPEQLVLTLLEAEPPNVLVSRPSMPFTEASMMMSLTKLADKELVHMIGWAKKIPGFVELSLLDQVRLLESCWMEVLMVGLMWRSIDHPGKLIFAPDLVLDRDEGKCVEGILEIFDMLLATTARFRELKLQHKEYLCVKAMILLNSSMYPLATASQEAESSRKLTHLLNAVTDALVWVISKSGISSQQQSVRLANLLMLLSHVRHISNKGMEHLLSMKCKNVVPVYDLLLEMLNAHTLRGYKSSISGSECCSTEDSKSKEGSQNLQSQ

Turning to `COc1ccc(C2COc3cc(OCCCCCC(C)(C)O)ccc3C2)cc1` (centres undefined), the Activity result in series [1] was “Non-Toxic”. Besides, in series [2], the result was Active.
Taken in the same sequence, the figures for `CCOC(=O)CCCCCOc1ccc2c(c1)OCC(c1ccc(OC)cc1)C2` (centres undefined) were “Non-Toxic” and “Active”.
As to `COc1ccc(C2COc3cc(OCCCCC(C)(C)O)ccc3C2)cc1` (centres undefined), the results for the Activity entry in series [1] and in series [3] were “Non-Toxic” and 20%, respectively. The result in series [2], in series [4], in series [5], in series [6], in series [7] and in series [8] was Active.
Turning to `CCC(O)(CC)CCCCOc1ccc2c(c1)OCC(c1ccc(OC)cc1)C2` (centres undefined), the Activity entry in series [1] was “Non-Toxic”. For the same compound, the outcome in series [2] was Active.
